Data from ChEMBL document CHEMBL5537158, “Polymyxins with Potent Antibacterial Activity against Colistin-Resistant Pathogens: Fine-Tuning Hydrophobicity with Unnatural Amino Acids” (J Med Chem, 2024).
≈ marks a conversion by molar mass, not a printed value. Positions of bridges follow the written chain, without caps; N, C: chain ends. Non-standard residues stand in square brackets, D forms with d. Residues, ends and D or L forms follow the SMILES beside them. *: point of attachment. d(hPhe) = N[C@H](CCc1ccccc1)C(=O)O; hLeu = CC(C)CC[C@H](N)C(=O)O; Octanoyl = CCCCCCCC(=O)*; Dab = NCC[C@H](N)C(=O)O

Key:
Assay type in all cases: functional
[1] = system: Acinetobacter baumannii; assay: Antimicrobial activity against colistin resistant Acinetobacter baumannii clinical isolate 3 assessed as bacterial growth inhibition incubated for 20 hrs by broth microdilution method
[2] = system: Escherichia coli; assay: Antibacterial activity against […] Escherichia coli ATCC 25922 assessed as bacterial growth inhibition incubated for 20 hrs by broth microdilution method
[3] = system: Pseudomonas aeruginosa; assay: Antimicrobial activity against colistin resistant Pseudomonas aeruginosa 7197/19 assessed as bacterial growth inhibition incubated for 20 hrs by broth microdilution method
[4] = system: Pseudomonas aeruginosa; assay: Antimicrobial activity against Pseudomonas aeruginosa PAO1 assessed as bacterial growth inhibition incubated for 20 hrs by broth microdilution method
[5] = system: Escherichia coli; assay: Antibacterial activity against […] Escherichia coli clinical isolate 2 assessed as bacterial growth inhibition incubated for 20 hrs by broth microdilution method
[6] = system: Acinetobacter baumannii; assay: Antimicrobial activity against colistin resistant Acinetobacter baumannii clinical isolate 4 assessed as bacterial growth inhibition incubated for 20 hrs by broth microdilution method
[7] = system: Escherichia coli; assay: Antibacterial activity against Escherichia coli ATCC 25922 assessed as bacterial growth inhibition incubated for 20 hrs by broth microdilution method
[8] = system: Pseudomonas aeruginosa; assay: Antimicrobial activity against Pseudomonas aeruginosa ATCC 27853 assessed as bacterial growth inhibition incubated for 20 hrs by broth microdilution method
[9] = system: Klebsiella pneumoniae; assay: Antimicrobial activity against colistin resistant Klebsiella pneumoniae clinical isolate 2 assessed as bacterial growth inhibition incubated for 20 hrs by broth microdilution method
[10] = system: Klebsiella pneumoniae; assay: Antimicrobial activity against Klebsiella pneumoniae ATCC 13883 assessed as bacterial growth inhibition incubated for 20 hrs by broth microdilution method
[11] = system: Acinetobacter baumannii; assay: Antimicrobial activity against colistin resistant Acinetobacter baumannii clinical isolate 1 assessed as bacterial growth inhibition incubated for 20 hrs by broth microdilution method
[12] = system: Klebsiella pneumoniae; assay: Antimicrobial activity against colistin resistant Klebsiella pneumoniae clinical isolate 1 assessed as bacterial growth inhibition incubated for 20 hrs by broth microdilution method
[13] = system: Escherichia coli; assay: Antimicrobial activity against […] Escherichia coli harboring mcr-1 assessed as bacterial growth inhibition incubated for 20 hrs by broth microdilution method
[14] = system: Escherichia coli; assay: Potency index, ratio of colistin MIC to test compound MIC for antibacterial activity against Escherichia coli harboring mcr-1
[15] = system: Pseudomonas aeruginosa; assay: Potency index, ratio of colistin MIC to test compound MIC for antibacterial activity against colistin resistant Pseudomonas aeruginosa clinical isolate 1
[16] = system: Acinetobacter baumannii; assay: Antimicrobial activity against colistin resistant Acinetobacter baumannii clinical isolate 2 assessed as bacterial growth inhibition incubated for 20 hrs by broth microdilution method
[17] = system: Klebsiella pneumoniae; assay: Antimicrobial activity against colistin resistant Klebsiella pneumoniae clinical isolate 3 assessed as bacterial growth inhibition incubated for 20 hrs by broth microdilution method
[18] = system: Acinetobacter baumannii; assay: Antimicrobial activity against colistin resistant Acinetobacter baumannii ATCC 19606 assessed as bacterial growth inhibition incubated for 20 hrs by broth microdilution method
[19] = system: Klebsiella pneumoniae; assay: Antimicrobial activity against colistin resistant Klebsiella pneumoniae clinical isolate 5 assessed as bacterial growth inhibition incubated for 20 hrs by broth microdilution method
[20] = system: Acinetobacter baumannii; assay: Antimicrobial activity against Acinetobacter baumannii ATCC 19606 assessed as bacterial growth inhibition incubated for 20 hrs by broth microdilution method
[21] = system: Pseudomonas aeruginosa; assay: Antimicrobial activity against colistin resistant Pseudomonas aeruginosa clinical isolate 1 assessed as bacterial growth inhibition incubated for 20 hrs by broth microdilution method
[22] = system: Klebsiella pneumoniae; assay: Antimicrobial activity against colistin resistant Klebsiella pneumoniae ATCC 13883 assessed as bacterial growth inhibition incubated for 20 hrs by broth microdilution method
[23] = system: Pseudomonas aeruginosa; assay: Potency index, ratio of polymyxin B MIC to test compound MIC for antibacterial activity against colistin resistant Pseudomonas aeruginosa clinical isolate 1
[24] = system: Acinetobacter baumannii; assay: Antimicrobial activity against colistin resistant Acinetobacter baumannii ATCC 3658/17 assessed as bacterial growth inhibition incubated for 20 hrs by broth microdilution method
[25] = system: Escherichia coli; assay: Antibacterial activity against […] Escherichia coli clinical isolate 3 assessed as bacterial growth inhibition incubated for 20 hrs by broth microdilution method

Row | Structure (SMILES) | MIC [3] | MIC [4] | MIC [5] | MIC [7] | MIC [8] | MIC [9] | MIC [10] | MIC [12] | MIC [13] | MIC [20] | MIC [24] | also measured
1 | CCCCCCCC(=O)N[C@@H](CCN)C(=O)N[C@H](C(=O)N[C@@H](CCN)C(=O)N[C@H]1CCNC(=O)[C@H]([C@@H](C)O)NC(=O)[C@H](CCN)NC(=O)[C@H](CCN)NC(=O)[C@H](CCC(C)C)NC(=O)[C@@H](Cc2ccccc2)NC(=O)[C@H](CCN)NC1=O)[C@@H](C)O (Octanoyl-[Dab]T[Dab][Dab][Dab][dF][hLeu][Dab][Dab]T; lactam 4-C) | 0.5 µg/mL (≈ 0.415 µM) | < 0.125 µg/mL | 0.5 µg/mL (≈ 0.415 µM) | < 0.125 µg/mL | 0.25 µg/mL (≈ 0.208 µM) | 8 µg/mL (≈ 6.65 µM) | 0.25 µg/mL (≈ 0.208 µM) | 16 µg/mL (≈ 13.3 µM) | 1 µg/mL (≈ 0.831 µM) | – | – | MIC [1]: 0.5 µg/mL (≈ 0.415 µM); MIC [2]: 0.125 µg/mL (≈ 0.104 µM); MIC [6]: 2 µg/mL (≈ 1.66 µM); MIC [11]: 4 µg/mL (≈ 3.32 µM)
2 | CCCCCCCC(=O)N[C@@H](CCN)C(=O)N[C@H](C(=O)N[C@@H](CCN)C(=O)N[C@H]1CCNC(=O)[C@H]([C@@H](C)O)NC(=O)[C@H](CCN)NC(=O)[C@H](CCN)NC(=O)[C@H](CCCCCC)NC(=O)[C@@H](Cc2ccccc2)NC(=O)[C@H](CCN)NC1=O)[C@@H](C)O | – | < 0.125 µg/mL | 1 µg/mL (≈ 0.821 µM) | < 0.125 µg/mL | 0.25 µg/mL (≈ 0.205 µM) | 8 µg/mL (≈ 6.57 µM) | < 0.123 µg/mL | 16 µg/mL (≈ 13.1 µM) | 0.5 µg/mL (≈ 0.411 µM) | 0.125 µg/mL (≈ 0.103 µM) | 0.25 µg/mL (≈ 0.205 µM) | Ratio [14]: 4; Ratio [15]: 2; MIC [16]: 16 µg/mL (≈ 13.1 µM); MIC [17]: 4 µg/mL (≈ 3.29 µM); MIC [18]: 0.25 µg/mL (≈ 0.205 µM); MIC [19]: 16 µg/mL (≈ 13.1 µM); MIC [21]: 2 µg/mL (≈ 1.64 µM); MIC [22]: 8 µg/mL (≈ 6.57 µM); Ratio [23]: 2; MIC [25]: 1 µg/mL (≈ 0.821 µM)
3 | CCCCCCCC(=O)N[C@@H](CCN)C(=O)N[C@H](C(=O)N[C@@H](CCN)C(=O)N[C@H]1CCNC(=O)[C@H]([C@@H](C)O)NC(=O)[C@H](CCN)NC(=O)[C@H](CCN)NC(=O)[C@H](Cc2ccccc2)NC(=O)[C@@H](CCc2ccccc2)NC(=O)[C@H](CCN)NC1=O)[C@@H](C)O (Octanoyl-[Dab]T[Dab][Dab][Dab][d(hPhe)]F[Dab][Dab]T; lactam 4-C) | 0.25 µg/mL (≈ 0.202 µM) | 0.25 µg/mL (≈ 0.202 µM) | – | 0.5 µg/mL (≈ 0.404 µM) | – | – | 2 µg/mL (≈ 1.62 µM) | – | 2 µg/mL (≈ 1.62 µM) | 0.125 µg/mL (≈ 0.101 µM) | 1 µg/mL (≈ 0.808 µM) | –
